The values that follow come from patent US20220306623A1, “PYRIDYL OR PYRIMIDYL MTOR KINASE INHIBITORS” (GLAXOSMITHKLINE INTELLECTUAL PROPERTY DEVELOPMENT LIMITED, priority 2019, published 2022).

For assay [1], the system named is phosphorylated Akt at serine 473 (pAKTs473) in primary human lung fibroblasts. Description: High throughput phosphorylated Akt (Ser473) in vitro immunoassay (MSD). The format is cell-based. The conditions noted are these: Fibroblast, primary human lung fibroblasts (Lonza), 384-well, compound 1 h, PDGF-BB 10 ng/ml 10 min, read-out: mean pIC50, pAKTser473 high throughput immunoassay (converted). The text has this: Immunoassay to measure effect of test compounds on phosphorylated Akt at serine 473 (pAKTs473) in primary human lung fibroblasts (Lonza Group Ltd, Basel, Switzerland, Catalogue No. CC-2512) using the MesoScale Discovery (MSD) platform to quantify levels of total Akt and pAKTser473.
Human lung fibroblasts were routinely maintained in fibroblast basal medium supplemented with 2% foetal bovine serum (FBS), 0.1% human fibroblast growth factor (FGF)-B, 0.1% insulin, 0.1% GA-100 (Lonza Group Ltd, Basel, Switzerland, Catalogue No. CC-3132) at 37° C. in 5% CO2 according to the manufacturer's protocol.
For the assay, cells were harvested using Trypsin/EDTA, (Lonza Group Ltd, Basel, Switzerland, Catalogue No. CC-5012), at working concentration of 0.025%, resuspended to give 3×10^5 cells/ml and 50 ul/well seeded into 384-well plates (Greiner Group, Kremsmunster, Austria, Catalogue No. 781091) in media containing 0.4% FBS and incubated o/n at 37° C. in 5% CO2.
Test compounds were dissolved in 100% DMSO to give 10 mM stock solutions and serially diluted to generate an 11-point concentration response curve. Compound were further diluted by […] into 384-well V-bottom polypropylene plates (Greiner Group, Kremsmunster, Austria, Catalogue No. 781280) with media containing 0.4% FBS to give 50 µM top compound concentration in 0.5% DMSO.
Compounds were transferred to 384-well plates contacting cells (0.1% DMSO final) and incubated for 1 h at 37° C. in 5% CO2, prior to stimulation with platelet-derived growth factor (PDGF)-BB (R&D Systems, Catalogue No. 220-BB) at 10 ng/ml (final) for 10 min at RT. Cell assay plates were incubated on ice and treated with lysis buffer (Cell Signalling Technology, Catalogue No. 9806) containing protease and phosphatase inhibitors (Thermo Scientific, Catalogue No. 78444) followed by shaking for 30 min at 4° C.
MSD plates (MSD, MA6000 384-well GAR plate, Catalogue No. L21RA-2) were blocked with blocking buffer containing TBS (MSD, Cat. No. R61TX-1) with 0.5% bovine serum albumin (BSA) (Sigma Aldrich, Cat. No. A7906), 0.1% tween-20 (Sigma Aldrich, Catalogue No. P2287) and coated with rabbit-anti-human pAkt (s473) ab (Cell Signalling Technology, Catalogue No. CST #4060) at RT with shaking, followed by washing (×3) with 1×TBS wash reagent containing 0.1% Tween-20. Cell lysates (30 ul) were added and MSD plates centrifuged at 1000 rpm at 4° C. o/n.
Plates were washed with 1×TBS wash buffer (×3), prior to addition of mouse-anti-human-total Akt ab (1 mg/ml) (Upstate (Milipore), Catalogue No. 05-591) in blocking buffer and shaken at RT for 1 h. After washing with 1×TBS wash buffer (×3), plates were incubated with goat-anti-mouse SULFO-TAG detection ab (MSD, Catalogue No. R32AC-1) (1:500 in blocking buffer) for 1 h at RT. Plates were washed with 1×TBS (×3) and read buffer (2×) (MSD, Catalogue No. R92TC-1) added before detecting electrochemiluminescence (MSD Sector Imager 6000).
Data analysis was performed by determining % inhibition values for test compounds relative to the minimum (+PDGF-BB stimulation) and maximum responses (no PDGF-BB stimulation) with non-linear regression analysis to determine IC50 values for test compounds.

In assay [2] the test system is type I collagen deposition in primary lung fibroblasts derived from human tissue. Description: High throughput type I collagen deposition (scar-in-a-jar) high content screening assay. The conditions noted are these: Primary lung fibroblast, 72 h, human pulmonary fibroblasts, 384-well, TGF-β 1 ng/ml 72 h, total collagen area, read-out: mean pIC50, high throughput type I collagen deposition (scar-in-a-jar) (converted). The format is cell-based. How it is done:
Highthroughput, cellular type I collagen deposition was measured by adapting a published method; scar-in-a-jar (Chen et al., 2009) to primary lung fibroblasts derived from human tissue and combining with high content analysis to permit fluorescent quantification of collagen deposited in the extracellular matrix (ECM). The human biological samples were sourced ethically and their research use was in accordance with the terms of the informed consents.
Test compounds were dissolved in 100% DMSO to give 10 mM (stocks) and further diluted to give half log dilutions to generate an 11 point concentration response curve. 1 ul was transferred to 384-well plates (Greiner Group, Kremsmunster, Austria, Catalogue No Greine 781280r).
Human pulmonary fibroblasts were maintained in DMEM media (Gibco, Catalogue No 21969) supplemented with 4 mM L-glutamine (Gibco Catalogue No 25030-024) and 10% heat inactivated FBS (Gibco, Catalogue No 10099-141) at 37° C. in 10% CO2. Cells were harvested and resuspended at 4×10^6 cells/ml in a T175 cell culture flask (BD Falcom, Catalogue No: 353112) containing 50 mL of culture media. After 4 days 37° C. in 10% CO2, cells were harvested and seeded at 4000 cells per well ([…]) into 384-well plates (BD Falcon, Catalogue No 353962Greiner) in assay media (0.4% heat inactivated FBS, 4 mM L-glutamine). Plates were sealed with breathable seals (Sigma, Catalogue No. BEM-1). Assay plates were incubated for 72 h at 37° C. in 10% CO2.
Assay media was supplemented with 112.5 mg/ml Ficoll 70 (Sigma, Catalogue No F2878), 75 mg/ml Ficoll 400 (Sigma, Catalogue No F4375) and 50 µg/ml ascorbic acid (Sigma, Catalogue No A8960). 30 μL assay media were added to 1 l compound ([…] compound concentration in 1% DMSO). Diluted compounds (10 μL) were transferred to plates containing cells and incubated for 3 h at 37° C. in 10% CO2. Transforming growth factor (TGF)-β (R&D systems, Catalogue No 100-B/CF) was reconstituted to give 10 µg/mL (stock) and further diluted in assay media containing Ficoll and ascorbic acid (1 in 3333). TGF-β was added to cell plates (1 ng/ml final) and cells incubated for 72 h at 37° C. in 10% CO2.
Media was aspirated from cells and 30 µL/well 100% ice-cold methanol added and incubated at RT for 5 min to fix cells. Methanol was aspirated and cells washed with PBS (3×). To block and permeabilise, cells were incubated with PBS containing 1% BSA and 0.1% Triton X 100 for 20 min, followed by PBS wash (3×). Cells were incubated with mouse anti human type I collagen monoclonal antibody (Sigma, Catalogue No C2456) diluted 1:1000 in PBS for 24 h at 4° C. Cells were washed with PBS containing 0.1% Tween-20 (3×) and incubated with secondary alexa fluor 488 goat-anti-mouse antibody (Invitrogen, Catalogue No A11001, 1 in 500 in PBS) and Hoechst 33342 (Sigma, Catalogue No H21492), 1 in 1000 in PBS) for 1 h at RT, prior to washing with PBS containing 0.1% Tween (×4).
Type I collagen immunoreactivity was detected using the INCell 2000 Analyzer (GE Healthcare, INcell 2000) set to excitation and emission wavelengths for DAPI and FITC with laser focus and exposure adjusted to appropriate levels. Images were imported and analysed using Columbus software (Perkin Elmer) and computational algorithms to quantify “total collagen area” and “cell count”.
Data analysis was performed by determining 0/inhibition values for test compounds relative to the minimum (media only) and maximum responses (TGF-βstimulation) with non-linear regression analysis to determine IC50 values for test compounds.

The next assay concerns the target T1, mTOR (Homo sapiens, UniProt P42345).
T1 construct: capturing of endogenously expressed target proteins from cell extracts by a bead-immobilized capturing ligand; endogenous in cells; host or cells: HuT-78 cells (ECACC 88041901), cell lysate
Description: mTOR kinobeads competition-binding assay. To be noted: HuT-78 cell lysate, bead-immobilized capturing ligand, 2 h at 4° C., mean of multiple experiments; read-out: mean pIC50, mTOR kinobeads assay (converted). The method, then: The affinity of test compounds for mTOR was determined in the mTOR kinobeads assay. This is a competition-binding assay based on the capturing of endogenously expressed target proteins from cell extracts by a bead-immobilized capturing ligand in the presence of the test compound.
HuT-78 cells (European Collection of Authenticated Cell Cultures, 88041901) were cultured according to vendor's instructions. Frozen cell pellets were homogenized in 3× pellet volumes lysis buffer (50 mM Tris-HCl, 0.4% (v/v) Igepal-CA630, 5% glycerol, 150 mM NaCl, 1.5 mM MgCl2, 25 mM NaF, 1 mM sodium vanadate, 1 mM DTT, pH 7.5, supplemented with EDTA-free protease inhibitor tablet (Roche)). The sample was dispersed using a Dounce homogenizer, kept rotating for 30 min at 4° C., and centrifuged for 10 min at 20000 gat 4° C. The supernatant was centrifuged again for 1 h at 145 000 g. The protein concentration was determined by Bradford assay (BioRad), aliquots were snap frozen in liquid nitrogen and stored at −80° C.
The capturing matrices were generated by derivatizing N-hydroxysuccinimide (NHS) activated Sepharose 4 beads (GE Healthcare) with the functionalized ligands Compound A and Compound C at a ligand density of 5 mM. Remaining NHS-groups were blocked with ethanolamine.
For the mTOR kinobeads assay the matrices were combined in a 1:1 ratio and equilibrated in DP buffer (50 mM Tris-HCl (pH 7.5), 0.4% (v/v) Igepal-CA630, 5% (v/v) glycerol, 150 mM NaCl, 1.5 mM MgCl2, 25 mM NaF, 1 mM Na3VO4, 1 mM dithiothreitol). All steps of the mTOR kinobeads assay were performed at 4° C. or on ice. The cell lysate was diluted with DP buffer to a final concentration of 5 mg/ml and a final detergent concentration of 0.4% (v/v) Igepal-CA630. For the assay 250 μg cell lysate and 2.5 μl capturing matrix per well (final assay volume: 75 μl) were incubated in the presence of test compounds in a 384-well filter plate (MultiScreenHTS HV Filter Plate, 0.45 μm, MZHVNOW50, Merck Millipore). Each plate contained 16 positive (100 μM Compound B) and 16 negative (2% v/v DMSO) control wells. Compounds were tested in a concentration-response applying 1:3 or 1:4 dilution steps for in total 11 data points. DMSO concentration was 2% (v/v). After 2 h incubation on an overhead shaker (Roto-Shake Genie, Scientific Industries Inc.) at 4° C. the non-bound fraction was removed by washing the beads with DP buffer. Proteins retained on the beads were eluted in SDS sample buffer (200 mM Tris (pH 7.4), 250 mM Trizma Base, 4% (w/v) SDS, 20% (v/v) glycerol, 0.01% (w/v) bromophenol blue, 50 mM dithiothreitol) into a collection plate (384 well polypropylene microplate, V-shape, Greiner, 781 280). Eluates were spotted on nitrocellulose membranes (400 nl per spot) using an automated pin-tool liquid transfer (Biomek FX, Beckman). After drying, the membranes were rehydrated in 20% (v/v) ethanol and blocked by incubation with Odyssey blocking buffer (LICOR, 927-40000) for 1 h at room temperature. Blocked membranes were incubated overnight at 25° C. with Odyssey blocking buffer supplemented with a specific anti-mTOR antibody (Cell Signaling, 2972; 1:500) and 0.4% TWEEN-20. Then the membranes were washed in PBST buffer and incubated for 60 minutes at room temperature with the detection antibody (IRDye™ labelled antibody from LI-COR) diluted in Odyssey blocking buffer (LICOR 927-40000) containing 0.2% TWEEN-20. Then the membranes were washed with PBST and finally rinsed twice with PBS buffer to remove residual Tween-20. The membranes were then scanned with the Odyssey® Infrared Imaging System (LI-COR Biosciences). Fluorescence signals were recorded and analyzed according to the instructions of the manufacturer. Concentration response curves were computed with the software Activity Base. All data were normalized to the mean of 16 high (negative control) and 16 low (positive control) control wells on each plate. […]

Consider `CC[C@H]1COCCN1c1cc(CS(C)(=O)=O)cc(-c2ccc3[nH]c(C)cc3n2)n1` [Example 22, (S)-3-ethyl-4-(6-(2-methyl-1H-pyrrolo[3,2-b]pyridin-5-yl)-4-((methylsulfonyl)methyl)pyridin-2-yl)morpholine], for which the IC50 in assay [1] was 0.00251 to 0.0251 µM; in assay [2], 0.02 to 3.16 µM.

`CC[C@@H]1COCC(=O)N1c1cc(CS(C)(=O)=O)cc(-c2ccc3[nH]c(CNC)cc3n2)n1` [Example 34, (R)-5-ethyl-4-(6-(2-((methylamino)methyl)-1H-pyrrolo[3,2-b]pyridin-5-yl)-4-((methylsulfonyl)methyl)pyridin-2-yl)morpholin-3-one]: the IC50 is 7.94 µM in assay [1] and 1.26 µM on mTOR.
